This note sets out measurements from PMC6711994 (Scientific Reports, 2019).

One assay addresses T1, lsBSH (Ligilactobacillus salivarius, UniProt J7H3P9).
T1 construct: recombinant from E. coli JL885 (pBSH vector), purified; initiator Met removed, N-terminal nucleophile Cys2; homotetramer; Cys2 oxidised (sulfonic, OCS) in the crystal
Nature of the assay: X-ray crystal structure, […] Å, crystal soaking. It counts as binding. Particulars: CA formed from soaked GCA; Cys2 oxidised (sulfonic form); active site of chains B, C, D, E, G and H.

The target of assay [1] is bile salt hydrolase from Lactobacillus salivarius (Lactobacillus salivarius NRRL B-30514). In words: crystal structure; apo lsBSH crystals (20% PEG 3,350, 0.2 M KH2PO4 pH 4.8, 20 °C) soaked with GCA for 4 h; space group P21; two tetramers in one asymmetric unit.

T1 sequence (J7H3P9 entry or part of it): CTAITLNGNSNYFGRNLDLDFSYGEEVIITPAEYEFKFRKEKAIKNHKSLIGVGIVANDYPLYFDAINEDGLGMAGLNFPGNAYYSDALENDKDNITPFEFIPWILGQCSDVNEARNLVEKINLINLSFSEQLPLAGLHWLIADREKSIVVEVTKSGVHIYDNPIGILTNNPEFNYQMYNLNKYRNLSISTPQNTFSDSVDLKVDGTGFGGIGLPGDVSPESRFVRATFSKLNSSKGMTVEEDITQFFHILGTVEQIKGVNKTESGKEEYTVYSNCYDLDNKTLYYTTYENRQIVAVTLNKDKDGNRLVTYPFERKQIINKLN

For the compound `C[C@H](CCC(=O)O)[C@H]1CC[C@H]2[C@@H]3[C@H](O)C[C@@H]4C[C@H](O)CC[C@]4(C)[C@H]3C[C@H](O)[C@]12C` [CA, cholic acid], the “X-ray crystal structure, 2.10 Å, crystal soaking” value on lsBSH is given as “The lsBSH monomers were obtained bound to substrate GCA or product CA”.

As to “bile salt hydrolase from Lactobacillus salivarius (enzyme)”, in assay [1], the stoichiometry N turned out to be 4.
